The results in this text go back to patent US7179825B2, “Retinoic acid mimetic anilides” (Janssen Pharmaceutica N.V., priority 1997, dated 2007).

As usually defined, the IC50 is the concentration that inhibits the measured activity by half.

For the first assay, the system named is metabolism of retinoic acid in human breast cancer cells. As to the kind of experiment: Inhibition of retinoic acid (RA) metabolism (Example C.1). Type of assay: cell-based. As to conditions: MCF-7 human breast cancer cells, 3H-RA as substrate; concentration needed to reduce the amount of metabolites to 50% of the control. An excerpt: (§1) The property to delay the metabolism of retinoic acid can be evidenced in various in vitro and in vivo experiments. A particular in vitro procedure is described in example C.1 and tests the inhibitory activity of the compounds of formula (I) on the metabolism of retinoic acid in human breast cancer cells. The compounds of the present invention were also effective in suppressing induced vaginal keratinization effects in ovariectomized rats as is described in example C.2.
Inhibition of Retinoic Acid (RA) Metabolism
MCF-7 human breast cancer cells were grown as stock cultures according to art-known protocols. One day before the experiment, RA is added to the stock cultures to stimulate RA-metabolism. At the start of the experiment, cell suspensions were incubated in a tissue culture medium containing ^3H-RA as the substrate. Different concentrations of the test compound (dissolved in 1% DMSO) were added to the incubation mixtures, and at the end of the incubation, the unmetabolized RA is separated from its polar metabolites. The fraction containing the polar ^3H-labelled metabolites was collected and counted in a scintillation counter. For each experiment, a control and a blank incubation were run in parallel. Table 22 list the IC50 value (defined as the concentration in M needed to reduce the amount of metabolites to 50% of the control).
Turning to `CC(C(c1ccc(NC(=O)Cc2ccc(O)c(Cl)c2)cc1)n1cncn1)N(C)C` (mixture of isomers) [Compound 299], the IC50 worked out at 0.772 nM.

Take `COc1ccc(CC(=O)Nc2ccc(C(C(C)N(C)CCc3ccccc3)n3ccnc3)cc2)cc1OC` (mixture of isomers) [Compound 415]: the IC50 amounted to 2.64 nM. Turning to `Cc1cncn1C(c1ccc(Cl)cc1)c1ccc(NC(=O)C=C(c2ccccc2)c2cccc(Cl)c2)cc1` (mixture of isomers) [Compound 693], the half-maximal inhibitory concentration (IC50) was more than 100 nM. For the compound `CCC(CC)C(c1ccc(NC(=O)COc2ccccc2OC)cc1)n1cncn1` (racemic) [Compound 12], the IC50 stood at 0.0365 nM. Consider `CCC(CC)C(c1ccc(NC(=O)C(O)c2ccc(Cl)cc2)cc1)n1cncn1` (racemic) [Compound 17, (±)-A1-4-chloro-N-[4-[2-ethyl-1-(1H-1,2,4-triazol-1-yl)butyl]phenyl]-α-hydroxybenzeneacetamide], for which the IC50 was determined as 0.999 nM.

Consider `CCC(CC)C(c1ccc(NC(=O)Cc2ccc(OC)nc2)cc1)n1ccnc1` (racemic) [Compound 51], for which the IC50 came out at 0.895 nM. The same measure, in the same setting: in the case of `CCC(CC)C(c1ccc(NC(=O)Cc2ccc(OC)c(O)c2)cc1)n1ccnc1` (racemic) [Compound 108] it was 0.0234 nM.

The subject of the next assay is Ovariectomized rats. As to the kind of experiment: Vaginal keratinization test on ovariectomized rats (Example C.2). The conditions noted are these: estradiol undecylate induced keratinization, per os once daily on days 1-3, active dose = 50% of rats show complete suppression. The format is in vivo.
From the text: as §1
“Vaginal Keratinization Test on Ovariectomized Rats”
Ovariectomized rats were injected subcutaneously with a sesame oil solution containing 100 μg of estradiol undecylate in a volume of 0.1 ml per 100 g body weight and control animals were injected with sesame oil. On day one, two and three, test animals were treated once daily with a per os dose of the test compound and control animals with the drug vehicle (PEG 200). One day after the last treatment, the animals were sacrificed and their vaginas were processed for histological evaluation according to the method described in J. Pharmacol. Exp. Ther. 261(2), 773–779 (1992). A dose at which 50% of the tested rats show complete suppression of the estradiol undecylate induced keratinization effects is defined as an active dose. Table 23 lists the lowest active dose (LAD in mg/kg) of the compounds of formula (I) which were tested.
`COc1cc(CC(=O)Nc2ccc(C(C(C)N(C)C)n3ccnc3)cc2)cc(OC)c1OC` (single isomer, unassigned) [Compound 428]: the “LAD (lowest active dose)” value was more than 2.50 mg/kg. As to `COc1ccc(CCC(=O)Nc2ccc(C(C(C)N(C)C)n3ccnc3)cc2)cc1OC` (single isomer, unassigned) [Compound 429], the “LAD (lowest active dose)” value is more than 2.50 mg/kg.

On to `COc1ccc(CCCC(=O)Nc2ccc(C(C(C)N(C)C)n3ccnc3)cc2)cc1OC.O=C(O)C(=O)O` (single isomer, unassigned) [Compound 431], for which the “LAD (lowest active dose)” value is given as more than 2.50 mg/kg.

On to `COc1ccc(CC(=O)N(C)c2ccc(C(C(C)N(C)C)n3cncn3)cc2)cc1OC` (single isomer, unassigned) [Compound 437], for which the “LAD (lowest active dose)” value is recorded as more than 2.50 mg/kg.

With `COc1ccc(CC(=O)N(C)c2ccc(C(C(C)N(C)C)n3cncn3)cc2)cc1OC` (single isomer, unassigned) [Compound 438], the “LAD (lowest active dose)” value is listed as more than 2.50 mg/kg.

On to `COc1ccc(CC(=O)N(C)c2ccc(C(C(C)N(C)C)n3ccnc3)cc2)cc1OC` (single isomer, unassigned) [Compound 439], for which the “LAD (lowest active dose)” value is reported as more than 2.50 mg/kg. Regarding `CCCCCC(C)C(c1ccc(NC(=O)/C(C)=C/c2ccccc2)cc1)n1ccnc1` (single isomer, unassigned) [Compound 487], the “LAD (lowest active dose)” value is recorded as more than 5.00 mg/kg. Still for that read-out and setting: in the case of `CCCCCC(CC)C(c1ccc(NC(=O)C(C)=Cc2ccccc2)cc1)n1ccnc1` (single isomer, unassigned) [Compound 494] it was more than 2.50 mg/kg; in that of `CC(=O)Nc1ccc(C(C(C)N(C)C)n2ccnc2)cc1.O` (single isomer, unassigned) [Compound 551], more than 2.50 mg/kg.

With `CC(=O)Nc1ccc(C(C(C)N(C)C)n2ccnc2)cc1` (single isomer, unassigned) [Compound 552], the “LAD (lowest active dose)” value is more than 2.50 mg/kg. Turning to `CCN(CC)C(C)C(c1ccc(NC(C)=O)cc1)n1ccnc1` (single isomer, unassigned) [Compound 554], the “LAD (lowest active dose)” value was found to be 2.50 mg/kg. As to `CCN(CC)C(C)C(c1ccc(NC(C)=O)cc1)n1ccnc1` (single isomer, unassigned) [Compound 555], the “LAD (lowest active dose)” value was more than 2.50 mg/kg. For `CCC(C(c1ccc(NC(C)=O)cc1)n1ccnc1)N(C)C` (single isomer, unassigned) [Compound 557], the “LAD (lowest active dose)” value was more than 5.00 mg/kg. Take `CC(=O)Nc1ccc(C(C(C)N(C)C)n2cncn2)cc1` (single isomer, unassigned) [Compound 627]: the “LAD (lowest active dose)” value is recorded as more than 2.50 mg/kg. Take `CC(C(c1ccc(NC(=O)Cc2ccc(Cl)cc2)cc1)n1cncn1)N(C)C` (single isomer, unassigned) [Compound 628]: the “LAD (lowest active dose)” value was more than 2.50 mg/kg. In the case of `COc1ccc(CCC(=O)Nc2ccc(C(C(C)N(C)C)n3cncn3)cc2)cc1OC` (single isomer, unassigned) [Compound 629], the “LAD (lowest active dose)” value is more than 2.50 mg/kg. The same measure, in the same setting: in the case of `COc1cc(CC(=O)Nc2ccc(C(C(C)N(C)C)n3cncn3)cc2)cc(OC)c1OC` (single isomer, unassigned) [Compound 630] it was more than 2.50 mg/kg; in that of `C/C(=C\c1ccccc1)C(=O)Nc1ccc(C(C(C)N(C)C)n2cncn2)cc1` (single isomer, unassigned) [Compound 632], more than 2.50 mg/kg; in that of `CCN(CC)C(C)C(c1ccc(NC(C)=O)cc1)n1cncn1` (single isomer, unassigned) [Compound 647], more than 5.00 mg/kg. Consider `CC(C(c1ccc(NC(=S)Nc2nc3ccccc3s2)cc1)n1ccnc1)N(C)C` (single isomer, unassigned) [Compound 704], for which the “LAD (lowest active dose)” value was more than 5.00 mg/kg. Still for that read-out and setting: in the case of `COc1ccc(NC(=O)Nc2ccc(C(C(C)N(C)C)n3cncn3)cc2)cc1OC` (single isomer, unassigned) [Compound 717] it was more than 2.50 mg/kg; in that of `COc1ccc(NC(=O)Nc2ccc(C(C(C)N(C)C)n3cncn3)cc2)cc1OC` (single isomer, unassigned) [Compound 720], more than 2.50 mg/kg; in that of `CC(C(c1ccc(NC(=O)Cc2ccc(Cl)cc2)cc1)n1cncn1)N(C)C` (single isomer, unassigned) [Compound 784], more than 5.00 mg/kg. For the compound `CC(C(c1ccc(NC(=O)Cc2ccc(Cl)cc2)cc1)n1cncn1)N(C)C` (single isomer, unassigned) [Compound 785], the “LAD (lowest active dose)” value is reported as 5.00 mg/kg. In the case of `CCC(CC)C(c1ccc(NC(=O)c2ccccc2)cc1)n1cncn1` (centres unmarked) [Compound 3], the “LAD (lowest active dose)” value is given as more than 2.50 mg/kg.

For the compound `CCC(CC)C(c1ccc(NC(=O)CN(C)C)cc1)n1ccnc1` (centres unmarked) [Compound 55], the “LAD (lowest active dose)” value was more than 2.50 mg/kg. Still for that read-out and setting: in the case of `CCOc1ccc(CCC(=O)Nc2ccc(C(C(C)N(C)C)n3ccnc3)cc2)cc1` (centres unmarked) [Compound 348] it was more than 2.50 mg/kg; in that of `COc1ccc(CC(=O)Nc2ccc(C(CN(C)C)n3ccnc3)cc2)cc1OC` (centres unmarked) [Compound 380], more than 2.50 mg/kg. The same measure, in the same setting: in the case of `CCOC(=O)CC(c1ccc(NC(=O)Cc2ccc(OC)c(OC)c2)cc1)n1ccnc1` (centres unmarked) [Compound 395] it was more than 5.00 mg/kg. As to `COc1ccc(CC(=O)Nc2ccc(C(CCO)n3ccnc3)cc2)cc1OC` (centres unmarked) [Compound 403], the “LAD (lowest active dose)” value is listed as more than 5.00 mg/kg. Regarding `CCOC(=O)CC(c1ccc(NC(C)=O)cc1)n1ccnc1` (centres unmarked) [Compound 560], the “LAD (lowest active dose)” value was more than 5.00 mg/kg.

As for `CCOC(=O)C(C)C(c1ccc(NC(=O)Cc2ccc(Cl)cc2)cc1)n1cncn1` (centres unmarked) [Compound 624], the “LAD (lowest active dose)” value was more than 2.50 mg/kg.

For the compound `CCC(C)C(c1ccc(NC(=O)Cc2ccc(Cl)cc2)cc1)n1cncn1` (centres unmarked) [Compound 626], the “LAD (lowest active dose)” value was determined as 2.50 mg/kg. For the compound `CCC(c1ccc(NC(C)=O)cc1)(C(C)C)n1ccnc1` (centres unmarked) [Compound 754], the “LAD (lowest active dose)” value was 10.00 mg/kg.
